Experimental data: patent US6660737B2, “Medicinal uses of hydrazones” (The Procter & Gamble Company, priority 2001, dated 2003)

Each molecule was assayed on VEGF (assay: VEGF-ELISA assay: VEGF secretion from HL-1 cardiomyocyte cell line). Details: HL-1 cells, 18 hr, VEGF in conditioned media by ELISA; read-out: EC50 (concentration of compound that induces the production of an amount of VEGF equal to half the maximum amount of VEGF induced by that compound).
Format: cell-based, Murine
Method: ^1EC50 is the concentration of compound that induces the production of an amount of VEGF equal to half the maximum amount of VEGF induced by that compound.
Any compound of the present invention can be screened by a VEGF-ELISA assay. VEGF secretion is assayed in the HL-1 cardiomyocyte cell line as described in Claycomb, W. C., “HL-1 cells: a cardiac muscle cell line that contracts and retains phenotypic characteristics of the adult cardiomyocyte”, Proc. Natl. Acad. Sci U.S.A., Vol. 95, pp. 2979-84 (1998). For experiments, HL-1 cells are plated in 96-well plates at a density of 2×10^4 cells per well in growth medium: EXCEL 320 media (JRH Biosciences, Lenexia, Kans.) plus 10% fetal bovine serum (BioWhitaker), 100 nM retinoic acid (Sigma, St Louis, Mo.), 10 μM norepinephrine (Sigma), 10 μg/ml insulin (Life Technologies, Grand Island, N.Y.), 1× non-essential amino acid supplement (Life Technologies), 50 μg/ml endothelial cell growth supplement (Upstate Biotechnology, Lake Placid, N.Y.), 100 units/ml penicillin, 100 units/mil streptomycin (Life Technologies). After 24 hrs, the media is replaced with a low-growth media (HL-1 media with 2% fetal bovine serum and without endothelial cell growth supplement) containing test compounds with 0.5% dimethyl sulfoxide (DMSO). After 18 hrs, conditioned media from the treated cells was assayed for VEGF content with a Murine VEGF-ELISA kit (R & D Systems, Minneapolis, Minn.). The amount of VEGF secreted into the media over an 18 hr period is normalized to positive control wells which are treated with a maximally effective concentration (1 mM) of deferoxamine mesylate (Sigma, St. Louis) and are reported as “percent activity,” where the VEGF in unstimulated wells is defined as 0% and the VEGF in wells treated with 1 mM deferoxamine is defined as 100%. Potency is determined by stimulating cells with 10 concentrations of test compounds (200 nM to 100 μM) and fitting the data to a variable slope sigmoidal dose-response curve using GraphPad Prism version 3.00 for Windows 95 (GraphPad Software, San Diego, Calif.). Determinations for each test compound are performed in three separate experiments and the means ±standard deviation of the Log(EC50) and maximum response are evaluated. Compounds for pharmaceutical use are selected based upon the greatest percent activity.
With `C(=N\Nc1nnc2c(n1)[nH]c1ccccc12)/c1ccccn1` [Example 14, N-Pyridin-2-ylmethylene-N′-(9H-1,3,4,9-tetraaza-fluoren-2-yl)-hydrazine] the EC50 was 2.3 µM.
With `Oc1ccccc1/C=N/Nc1ccccn1` [Example 20, 2-Pyridyl-(2-hydroxy-benzylidene)-hydrazide] the EC50 was 5.7 µM.
With `c1ccc(CNNc2ccccn2)nc1` [Example 4, N-Pyridin-2-yl-N′-pyridin-2-ylmethyl-hydrazine] the EC50 was 5.7 µM.
In the case of `Clc1ccc(N/N=C/c2ccccn2)nn1` [Example 9, N-(6-Chloro-pyridazin-3-yl)-N′-pyridin-2-ylmethylene-hydrazine], the EC50 is reported as 6.7 µM.
With `Oc1ccc(/C=N/Nc2nccnc2Cl)c(O)c1` [Example 21, 4-[(3-Chloro-pyrazin-2-yl)-hydrazonomethyl]-benzene-1,3-diol] the EC50 was 10.3 µM.
For `Cc1sc2ncnc(N/N=C/c3c(O)ccc4ccccc34)c2c1C` [Example 27], the EC50 was 1.8 µM.
For `C(=N\Nc1nc2ccccc2s1)/c1ccccn1` [Example 6, N-Benzothiazol-2-yl-N′-pyridin-2-ylmethylene-hydrazine], the EC50 was 1.5 µM.
Work on `C/C(=N\N(C)c1ccccn1)c1ccccn1` [Example 5, N-Methyl-N-pyridin-2-yl-N′-(1-pyridin-2-yl-ethylidene)-hydrazine] yielded an EC50 of 26.2 µM.
`Oc1ccccc1/C=N/Nc1nccnc1Cl` [Example 19, 2-[(3-Chloro-pyrazin-2-yl)-hydrazonomethyl]-phenol] showed an EC50 of 15 µM.
`C/C(=N\Nc1ccccn1)c1ccccn1` [Example 2, N-Pyridin-2-yl-N′-(1-pyridin-2-yl-ethylidene)hydrazine] showed an EC50 of 0.65 µM.
For `Cc1cccc(/C=N/Nc2ccc(Cl)nn2)n1` [Example 26, N-(6-Chloro-pyridazine-3-yl)-N′-(6-methyl-pyridin-2-ylmethylene)-hydrazine], the EC50 was 40 µM.
For `C(=N\Nc1ccc2ccccc2n1)/c1ccccn1` [Example 7, N-Pyridin-2-ylmethylene-N′-quinolin-2-yl-hydrazine], the EC50 was 3.15 µM.
Molecule `C/C(=N\Nc1nc(C)cc(C)n1)c1ccccn1` [Example 12, N-(4,6-Dimethyl-pyrimidin-2-yl)-N′-(1-pyridin-2-yl-ethylidien)-hydrazine] has an EC50 of 4.78 µM.
In the case of `C(=N\Nc1ccccc1)/c1ccccn1` [Example 16, N-Phenyl-N′-pyridin-2-ylmethylene-hydrazine], the EC50 is reported as 13 µM.
In the case of `CN(/N=C/c1ccccn1)c1ccccn1` [Example 3, N-methyl-N-pyridin-2-yl-N′-pyridin-2-ylmethylene-hydrazine], the EC50 is reported as 0.75 µM.
In the case of `CN(/N=C/c1ccccn1)c1ncc(C(F)(F)F)cc1Cl` [Example 11, N-(3-Chloro-5-trifluoromethyl-pyridin-2-yl)-N-methyl-N′pyridin-2-ylmethylene-hydrazine], the EC50 is reported as 15 µM.
Molecule `COc1cccc(/C=N/Nc2ccccn2)c1O` [Example 23, 2-Methoxy-6-(pyridin-2-yl-hydrazonomethyl)-phenol] has an EC50 of 7 µM.
For `Cc1ncc(CO)c(/C=N/Nc2ccccn2)c1O` [Example 22, 5-Hydroxymethyl-2-methyl-4-(pyridin-2-yl-hydrazonomethyl)-3-ol], the EC50 was 1.77 µM.
Work on `Oc1ccc(/C=N/Nc2nc(N3CCCC3)nc(N3CCCC3)n2)cc1O` [Example 28, 4-[(4,6-Di-pyrrolidin-1-yl-[1,3,5]triazin-2-yl)-hydrazonomethyl]-benzene-1,2-diol] yielded an EC50 of 1.1 µM.
`FC(F)(F)c1cc(C(F)(F)F)c2ccc(N/N=C/c3ccccn3)nc2n1` [Example 8, N-(5,7-Bis-trifluoromethyl-[1,8]naphthyridin-2-yl)-N′-pyridin-2-ylmethylene-hydrazine] was tested, and the EC50 was 1.57 µM.
With `Cc1cccc(/C=N/Nc2ccccn2)n1` [Example 25, N-(6-Methyl-pyridin-2-ylmethylene)-N′-pyridin-2-yl-hydrazine] the EC50 was 28.6 µM.
With `C(=N\Nc1ccccn1)/c1ccccn1` [Example 1, N-Pyridin-2-yl-N′-2-ylmethylene-hydrazine] the EC50 was 1.6 µM.
`Oc1ccccc1/C=N/Nc1ccccc1` [Example 18, 2-(Phenyl-hydrazonomethyl)-phenol] showed an EC50 of 14 µM.
`C/C(=N\Nc1ccc(C(F)(F)F)cc1)c1ccccn1` [Example 13, N-(1-Pyridin-2-yl-ethylidene)-N′-(4-trifluoromethyl-phenyl)-hydrazine] was tested, and the EC50 was 4.3 µM.
`Cc1ccccc1/C=N/Nc1ccccc1` [Example 17, N-(2-Methyl-benzylidene)-N′-phenyl-hydrazine] gave an EC50 of 15 µM.
In the case of `C/C(=N\Nc1nnc2c(n1)[nH]c1ccccc12)c1ccccn1` [Example 15, N-(1-Pyridin-2-yl-ethylidene)-N-(9H-1,3,4,9-tetraaza-fluoren-2-yl)-hydrazine], the EC50 is reported as 0.36 µM.
`FC(F)(F)c1cnc(N/N=C/c2ccccn2)c(Cl)c1` [Example 10, N-(3-Chloro-5-trifluoromethyl-pyridin-2-yl)-N′-pyridin-2-ylmethylene-hydrazine] was tested, and the EC50 was 1.56 µM.
